Consider three molecules from patent publication US10197560B2 (priority 2013, dated 2019).

The target in experiment [1] is T1, recombinant Rv3378c protein (Mycobacterium tuberculosis, UniProt P9WJ61).
T1 construct: hexahistidine (His6) tag from pET-28b, thrombin-cleavable (N, cleaved yes); made in house; host or cells: E. coli BL21-CodonPlus, co-expressed with GroES/GroEL chaperones
T1 sequence (P9WJ61 1-296): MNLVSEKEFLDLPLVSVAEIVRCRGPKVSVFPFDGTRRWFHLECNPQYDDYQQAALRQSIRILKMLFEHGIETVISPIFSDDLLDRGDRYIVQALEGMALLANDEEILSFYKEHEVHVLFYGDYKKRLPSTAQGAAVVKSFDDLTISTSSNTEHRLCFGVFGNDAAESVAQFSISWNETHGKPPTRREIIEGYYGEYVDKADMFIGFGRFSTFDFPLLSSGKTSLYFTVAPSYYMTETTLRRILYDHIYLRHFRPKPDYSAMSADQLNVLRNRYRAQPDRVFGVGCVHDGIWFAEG
The experiment can be described thus: Rv3378c enzymatic assays (tuberculosinyl transferase, HPLC-MS detection of 1-TbAd). Conditions: pH 7.4. Type of experiment: biochemical, M. tuberculosis.

Experiment [2] deals with phagosomal acidification. Conditions: synthetic tuberculosinols coupled to beads; reference (21); cited from earlier work.

“Also recorded” adds a separate entry of the source.

In the case of `CC(C)=CCC/C(C)=C/CC/C(C)=C/CC/C(C)=C/COP(=O)(O)OP(=O)(O)O` [GGPP, geranylgeranyl pyrophosphate], in experiment [1], the “product formation by Rv3378c from diterpene pyrophosphate substrate and adenosine” value is reported as “little or no product; also recorded: does not act on GGPP”.
For `C/C(=C\CO)CC[C@@]1(C)[C@@H]2CCCC(C)(C)C2=CC[C@@H]1C` [tuberculosinols, tuberculosinol], the “effect on phagosomal acidification” value in experiment [2] was “block phagosomal acidification”.
Take tuberculosinyl pyrophosphate [TbPP]: in experiment [1], the “product formation by Rv3378c from diterpene pyrophosphate substrate and adenosine” value is “catalyzed the condensation of adenosine and TbPP to generate 1-TbAd”.
